Test results taken from patent US20240360179A1, “STAPLED PEPTIDES AND METHODS THEREOF” (FOG PHARMACEUTICALS, INC., priority 2021, published 2024).
Where two headings read alike, the source gives them in different places.

Tests used:
[1] = molecular target: T1, TCF/LEF luciferase reporter in DLD1 cells (Homo sapiens, UniProt P35222); assay: TCF reporter assay in DLD1 cells (4% or 20% FBS); format: cell-based
T1 sequence (P35222 2-781): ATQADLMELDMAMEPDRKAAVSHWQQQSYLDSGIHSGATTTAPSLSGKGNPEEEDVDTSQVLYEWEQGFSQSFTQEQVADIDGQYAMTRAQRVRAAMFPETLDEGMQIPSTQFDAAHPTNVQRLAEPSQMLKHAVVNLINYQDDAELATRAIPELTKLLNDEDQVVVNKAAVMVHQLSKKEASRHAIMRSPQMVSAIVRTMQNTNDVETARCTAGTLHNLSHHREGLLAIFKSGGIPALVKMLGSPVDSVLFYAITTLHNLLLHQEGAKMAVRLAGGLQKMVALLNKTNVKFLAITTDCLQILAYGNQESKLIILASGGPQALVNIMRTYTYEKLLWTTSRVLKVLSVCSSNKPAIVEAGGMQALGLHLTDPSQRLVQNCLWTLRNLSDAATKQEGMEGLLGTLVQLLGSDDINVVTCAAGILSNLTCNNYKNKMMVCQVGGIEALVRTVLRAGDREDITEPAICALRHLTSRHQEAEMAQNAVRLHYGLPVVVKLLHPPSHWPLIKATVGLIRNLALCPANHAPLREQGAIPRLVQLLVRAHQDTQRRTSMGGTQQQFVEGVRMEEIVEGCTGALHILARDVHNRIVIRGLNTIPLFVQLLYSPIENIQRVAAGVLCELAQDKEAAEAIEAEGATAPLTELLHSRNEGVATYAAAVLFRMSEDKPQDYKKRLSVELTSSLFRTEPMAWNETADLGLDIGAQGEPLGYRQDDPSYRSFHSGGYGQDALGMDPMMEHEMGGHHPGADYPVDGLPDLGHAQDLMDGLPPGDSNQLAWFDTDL

[2] = molecular target: T2, beta-catenin/TCF4 interaction (Homo sapiens, UniProt P35222); format: cell-based; settings: read-out: NanoBRET Abs IC50
T2 construct: host or cells: HEK293
T2 sequence (P35222 1-781): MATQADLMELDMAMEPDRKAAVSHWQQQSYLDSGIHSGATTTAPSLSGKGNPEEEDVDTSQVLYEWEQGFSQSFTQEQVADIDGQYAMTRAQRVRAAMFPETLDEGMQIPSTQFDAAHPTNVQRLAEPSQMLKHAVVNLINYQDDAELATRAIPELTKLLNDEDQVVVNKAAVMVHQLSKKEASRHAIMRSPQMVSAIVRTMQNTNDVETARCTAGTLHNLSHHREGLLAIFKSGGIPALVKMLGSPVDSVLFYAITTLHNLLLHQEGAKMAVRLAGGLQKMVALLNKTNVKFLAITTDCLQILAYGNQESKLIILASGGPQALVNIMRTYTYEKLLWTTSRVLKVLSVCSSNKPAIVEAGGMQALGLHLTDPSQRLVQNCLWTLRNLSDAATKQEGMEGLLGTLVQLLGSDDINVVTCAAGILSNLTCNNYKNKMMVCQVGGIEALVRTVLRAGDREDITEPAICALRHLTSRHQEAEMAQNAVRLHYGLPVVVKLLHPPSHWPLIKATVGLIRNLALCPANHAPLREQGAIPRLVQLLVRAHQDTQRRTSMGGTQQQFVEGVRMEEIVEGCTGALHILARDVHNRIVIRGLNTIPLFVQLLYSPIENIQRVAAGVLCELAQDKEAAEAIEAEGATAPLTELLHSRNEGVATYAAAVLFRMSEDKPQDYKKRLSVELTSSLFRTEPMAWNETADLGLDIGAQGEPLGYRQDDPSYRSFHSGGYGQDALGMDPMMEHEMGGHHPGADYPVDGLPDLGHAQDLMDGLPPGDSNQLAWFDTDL

COLO320DM cells = assay: COLO320DM proliferation assay (CellTiter-Glo); format: cell-based, human; settings: read-out: COLO320DM Proliferation Abs IC50
Method in brief: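 COLO320DM cells, 250 cells/well in RPMI-1640 with 4% FBS, attached 18-22 h, then exposed 96 h at 37 °C, 5% CO2 to 7-point 1/2 dilutions from 20 uM to 313 nM. Viability by CellTiter-Glo luminescence; IC50 derived from the dose curve.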

[3] = molecular target: T3, full-length B-Catenin (Uniprot ID P35222) (Homo sapiens, UniProt P35222); format: binding
T3 construct: 10 nM full-length B-Catenin (Uniprot ID P35222)
T3 sequence (P35222 1-781): T2 sequence (P35222 1-781)

[4] = read-out: DLD1 4% Abs IC50, DLD1 TCF reporter, 4% FBS
[5] = read-out: DLD1 4% Abs IC50, DLD1 TCF reporter, 4% FBS, absolute IC50

Ac-PL3-Asp-Npg-B5-Asp-3COOHF-Ala-Ala-Phe-iPrLys*3-PyrS2-3Thi-BztA-hGlnR*3-Ala-NH2 [I-187]
IC50 [1, 4]: > 5000 nM

Ac-PL3-Glu-Npg-B5-Glu-3COOHF-Aib-Ala-Phe-Lys*3-PyrS2-2F3MeF-BztA-GlnR*3-Ala-NH2 [I-291]
IC50 [1, 4]: 1000 to 5000 nM

Ac-PL3-aThr-Npg-B5-Asp-3COOHF-Aib-Ala-Phe-Lys*3-PyrS2-3Thi-BztA-GlnR*3-Ala-NH2 [I-163]
IC50 [1, 4]: > 5000 nM

5hexenyl-MePro-Asp-AllylGly-R5-Asp-3COOHF-Aib-Ala-Phe-Lys*3-PyrS2-3Thi-BztA-GlnR*3-Ala-NH2 [I-430]
IC50 [2]: > 10000 nM

Ac-PL3-Asp-Npg-B5-Asp-3COOHF-Ala-Ala-Phe-sAla*3-PyrS2-3Thi-BztA-TriAzLys*3-Ala-NH2 [I-338]
IC50 [1, 5]: ≤ 1000 nM

Ac-PL3-Asn-Npg-B5-Asp-3COOHF-Ala-Ala-Phe-Lys*3-PyrS2-2F3MeF-BztA-GlnR*3-Leu-Ser-NH2 [I-142]
IC50 [1, 4]: > 5000 nM

Ac-PL3-Asp-Npg-B5-Asp-3COOHF-Aib-Ala-Phe-sAla*3-PyrS2-3Thi-BztA-TriAzLys*3-Ala-NH2 [I-336]
IC50 [1, 5]: 1000 to 5000 nM

Ac-PL3-Asp-Npg-B5-Asp-3COOHF-Ala-Ala-Phe-TriAzLys*3-PyrS2-3Thi-BztA-sAla*3-Ala-NH2 [I-337]
IC50 [1, 5]: ≤ 1000 nM

Ac-PL3-Asp-Npg-B5-Asp-3COOHF-Ala-Aib-Phe-Lys*3-PyrS2-3Thi-BztA-GlnR*3-Ala-NH2 [I-442]
IC50 [2]: > 10000 nM

Ac-PL3-Asp-Npg-B5-Asp-3COOHF-Aib-Ala-Phe-Lys*3-PyrS2-2F3MeF-BztA-GlnR*3-Leu-Ser-NH2 [I-138]
IC50 (COLO320DM cells): ≤ 10000 nM
IC50 [1, 4]: ≤ 1000 nM

Ac-PL3-Asp-Npg-B5-Asp-3COOHF-Aib-Ala-Phe-Lys*3-PyrS2-Phe-BztA-GlnR*3-Ala-NH2 [I-280]
IC50 ([3]; read-out: beta-Catenin FP IC50): < 50 nM

Ac-PL3-Asp-Cha-B5-Asp-3COOHF-Ala-Ala-Phe-Lys*3-PyrS2-2F3MeF-BztA-GlnR*3-Leu-NH2 [I-106]
IC50 [1, 4]: ≤ 1000 nM

Ac-PL3-Asp-Npg-B5-Asp-3COOHF-Acp-Ala-Phe-Lys*3-PyrS2-3Thi-BztA-GlnR*3-Ala-NH2 [I-385]
IC50 ([3]; read-out: beta-Catenin FP IC50): < 50 nM

Ac-PL3-Asp-Npg-B5-Asp-3COOHF-nLeu-Ala-Phe-Lys*3-PyrS2-3Thi-BztA-GlnR*3-Ala-NH2 [I-70]
IC50 (COLO320DM cells): ≤ 10000 nM
IC50 [1, 4]: ≤ 1000 nM

Ac-PL3-Asp-Npg-B5-Asp-3COOHF-Ala-Ala-Phe-Lys*3-PyrS2-3Thi-BztA-hGlnR*3-Ala-NH2 [I-183]
IC50 [1, 4]: 1000 to 5000 nM

Ac-PL3-Asp-Npg-B5-Asp-3COOHF-CyLeu-Ala-Phe-Lys*3-PyrS2-2F3MeF-BztA-GlnR*3-Leu-Ser-NH2 [I-141]
IC50 [1, 4]: ≤ 1000 nM

Ac-PL3-Asp-Npg-B5-Asp-3COOHF-Aib-Ala-Phe-[3_3-biph]Cys-PyrS2-3Thi-BztA-Cys-Ala-NH2 [I-567]
IC50 ([3]; read-out: beta-catenin TCF4 competition FP assay IC50): 120 nM
IC50 ([1]; read-out: beta-catenin TCF4 DLD1 cell reporter assay IC50): > 20000 nM

Ac-PL3-Asp-Npg-B5-Asp-3COOHF-Cbg-Ala-Phe-Lys*3-PyrS2-2F3MeF-BztA-GlnR*3-Leu-Ser-NH2 [I-140]
IC50 [1, 4]: ≤ 1000 nM

Ac-PL3-Asp-Npg-B5-Asp-3COOHF-Aib-Ala-Phe-Lys*3-PyrS2-3Thi-BztA-GlnR*3-Val-Aib-NH2 [I-408]
IC50 ([3]; read-out: beta-Catenin FP IC50): < 50 nM

Ac-PL3-Asp-Npg-B5-Asp-3COOHF-Aib-Ala-Phe-Lys*3-PyrS2-3Thi-BztA-GlnR*3-Leu-Ser-Ala-NH2 [I-497]
IC50 ([3]; read-out: beta-Catenin FP IC50): < 50 nM
